Literature values as cited in patent US20210052557A1, “COMPOSITIONS FOR TREATING INFECTIVE ARTERIAL DISEASES AND RELATED CONDITIONS” (CENTRE FOR DIGESTIVE DISEASES, priority 2018, published 2021).

What was measured:
[1] = system: Chlamydophila pneumoniae (Cpn); conditions: single antibiotic given to patients
[2] = system: Chlamydophila pneumoniae (Cpn)

Compound	clinical benefit as monotherapy [1]	activity against Chlamydophila pneumoniae (Cpn) [2]
CC[C@H]1OC(=O)[C@H](C)[C@@H](O[C@H]2C[C@@](C)(OC)[C@@H](O)[C@H](C)O2)[C@H](C)[C@@H](O[C@@H]2O[C@H](C)C[C@H](N(C)C)[C@H]2O)[C@](C)(O)C[C@@H](C)/C(=N\OCOCCOC)[C@H](C)[C@@H](O)[C@]1(C)O [roxithromycin]	Benefit	–
CN(C)c1cc(NC(=O)CNC(C)(C)C)c(O)c2c1C[C@H]1C[C@H]3[C@H](N(C)C)C(O)=C(C(N)=O)C(=O)[C@@]3(O)C(O)=C1C2=O [Tigecycline]	–	good activity
CC[C@H]1OC(=O)[C@H](C)[C@@H](O[C@H]2C[C@@](C)(OC)[C@@H](O)[C@H](C)O2)[C@H](C)[C@@H](O[C@@H]2O[C@H](C)C[C@H](N(C)C)[C@H]2O)[C@](C)(O)C[C@@H](C)CN(C)[C@H](C)[C@@H](O)[C@]1(C)O [Azithromycin]	some benefit, but this was not sustained	–
CC[C@H]1OC(=O)[C@H](C)C(=O)[C@H](C)[C@@H](O[C@@H]2O[C@H](C)C[C@H](N(C)C)[C@H]2O)[C@](C)(OC/C=C/c2cnc3ccccc3c2)C[C@@H](C)C(=O)[C@H](C)[C@H]2NC(=O)O[C@@]21C [cethromycin]	–	most active of the macrolides
